The subject of test [1] is Aorta. Nature of the test: Inhibition of KCl-induced contraction in rabbit aorta at 100 nM. In kind it is functional, tissue-based. The note with it: Oryctolagus cuniculus.
Test [2] deals with Aorta. Nature of the test: Inhibition of KCl-induced contraction in rabbit aorta at 300 uM. The class given is functional. The note with it: Oryctolagus cuniculus.

Active and inactive are the calls of the source. No cut-off for these calls is given here.

Consider `NC[C@H](O)c1ccc(O)c(O)c1`, for which the outcome in test [1] was inactive.

In turn, `CC(=O)c1cc(C(C)C)c2c(c1)C(C)(O)CC2` (configuration not stated) [CYLINDRENE] registered an inhibition at 300 µM in test [2] of 40%.

These data come from ChEMBL document CHEMBL1148052, “Cylindrene, a novel sesquiterpenoid from Imperata cylindrica with inhibitory activity on contractions of vascular smooth muscle” (1994).
